Read-outs that look alike come from different tables or passages of the source. Where a SMILES comes first, the peptide text is derived from it. [ ]: non-standard residue; d: D form. The star is where a group is joined. X2 = CC(C)C[C@@H](CN[C@@H](CC(C)C)C(N)=O)N*; Palmitoyl = CCCCCCCCCCCCCCCC(=O)*; pGlu = O=C1CC[C@@H](C(=O)O)N1; Lauroyl = CCCCCCCCCCCC(=O)*; Octanoyl = CCCCCCCC(=O)*
Key:
Bombesin Receptor = molecular target: T1, Bombesin Receptor (Mus musculus, UniProt P21729); test: Phosphatidylinositol turnover in chopped mouse pancreas; assay type: cell-based; parameters: key to PI Turnover Agonist: (+) represents agonist activity; (-) indicates no agonist activity; conditions: for PI Turnover % Inhibition: antagonist activity, referenced to the stimulation produced by 100 nM GRP
T1 construct: Pancreata from mice were chopped at 350 μm with a tissue chopper and pooled; from tissue; host or cells: chopped mouse pancreas
T1 sequence (P21729 whole entry): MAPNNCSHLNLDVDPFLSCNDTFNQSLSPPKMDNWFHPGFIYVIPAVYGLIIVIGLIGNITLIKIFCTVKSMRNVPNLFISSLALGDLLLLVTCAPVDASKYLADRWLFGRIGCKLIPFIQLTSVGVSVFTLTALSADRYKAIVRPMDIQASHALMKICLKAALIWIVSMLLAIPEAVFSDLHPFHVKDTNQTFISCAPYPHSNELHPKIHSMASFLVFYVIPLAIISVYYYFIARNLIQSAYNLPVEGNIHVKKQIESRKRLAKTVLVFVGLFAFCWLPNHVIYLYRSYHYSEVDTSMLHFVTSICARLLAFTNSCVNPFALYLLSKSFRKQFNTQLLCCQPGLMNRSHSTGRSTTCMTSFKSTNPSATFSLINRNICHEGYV
Description: Pancreata from mice were chopped at 350 μm with a tissue chopper and pooled. The chopped tissue was washed twice with oxygenated Krebs-Hepes, then incubated for 30 minutes in 37° C. oxygenated Krebs-Hepes buffer with fresh buffer after 15 minutes. The tissue was then incubated in this buffer containing 200 μCi of [^3 H] inositol at 37° C. for 1 hour. The tissue was then washed twice and incubated for another 30 minutes in oxygenated Krebs-Hepes (containing 10 mM Li^+) at 37° C. with a fresh buffer change after 15 minutes. Portions of the tissue mass (approximately 10 mg per assay tube) were then placed in Li^+ buffer with protease inhibitors, (40 μg/ml bacitracin, 4 μg/ml leupeptin, 4 μg/ml chymostatin, 8 μg/ml thiorphan), 0.1% BSA, and 0.1-10 μM peptide in a final volume of 250 μl. After 60 minutes at room temperature, the phosphatidylinositol turnover was terminated by the addition of 940 μl chloroform:methanol (1:2), followed by 310 μl chloroform, followed by 310 μl water. Each tube was then vortexed for 5 seconds and then centrifuged at 2500 x g for 10 minutes to separate the phases. 50 μl of the bottom phase (chloroform) was withdrawn from each tube and placed in a counting vial, dried, and counted in scintillation fluid. 900 μl of the top (aqueous) phase were then mixed with 2.1 ml water and loaded onto a 0.5 ml Biorad AG-1X8 (formate) ion exchange column. The material on the columns was washed in order with: 1) 10 ml of water 2) 5 ml of 5 mM disodium tetraborate/60 mM sodium formate 3) 10 ml of 1 M ammonium formate in 0.1 M formic acid. The final (third) wash was collected and one ml was mixed with 14 ml of Bio-Safe scintillant and counted. The ratio of these counts (total inositol phosphates) to the corresponding organic phase counts (inositol incorporated into the tissue) was then calculated for each sample. The ratios in the presence of test compound and/or standards were then compared to the ratios for control tubes (i.e., no stimulating agonist). The abilities of test compounds to stimulate phosphatidyl-inositol turnover were determined with the aid of a computer program. […] The ordinate (y-axis) indicates the observed PI turnover as a percentage of control. Values are mean±standard error of triplicate determinations.

bombesin/GRP receptor = molecular target: T2, bombesin/GRP receptor (Mus musculus, UniProt P21729); test: Competition for 125I-GRP binding to murine pancreatic membranes
T2 construct: The pancreata from one or more mice were pooled and homogenized; from tissue; host or cells: mouse pancreas membranes
T2 sequence (P21729 whole entry): as above
Description: The pancreata from one or more mice were pooled and homogenized in 50 mM HEPES (pH 7.4) containing 120 mM NaCl, 5 mM KCl, 1 mM EDTA and protease inhibitors (1 μg/ml aprotinin, leupeptin, pepstatin; 4 μg/ml bacitracin, antipain, bestatin; 100 μM PMSF) at 4° C. and centrifuged at 37,500 X g for 15 minutes. The pellet was resuspended in 50 mM HEPES (pH 7.4) containing 10 mM EDTA, 300 mM KCl, and protease inhibitors, and then incubated for 30 minutes at 4° C. The suspension was centrifuged as above and the pellet was washed two times in 50 mM HEPES (pH 7.4) containing 8 μg/ml thiorphan and protease inhibitors, and again centrifuged. The tissue was then resuspended in incubation buffer (1 ml per 4 mg pancreas) and incubated for 15 minutes at room temperature, then 250 μl were added to each assay tube to commence the assay. […] The assay was allowed to proceed to equilibrium for 90 minutes at room temperature. After this time, the contents of each tube was rapidly filtered over Whatman GF/B filters presoaked in 0.1% polyethyleneimine and the filters were rapidly washed three times with ice-cold 50 mM HEPES (pH 7.4). Filter-bound radioactivity was quantitated in a gamma counter. […] Affinity and maximal binding were calculated with LIGAND (Biosoft, Cambridge, UK) (FIGS. 1 and FIG. 2)
The abscissa (x-axis) logarithmically indicates the concentration of agonists being tested.

[1] = competitive binding, mouse pancreas, averages of multiple experiments, read-out: Kd

| Structure (SMILES) | PI Turnover % Inhibition (Bombesin Receptor) | Kd (bombesin/GRP receptor; [1]) | other results |
| --- | --- | --- | --- |
| CC(C)C[C@@H](C(N)=O)[S+]([O-])C[C@H](Cc1ccccc1)NC(=O)[C@H](Cc1c[nH]cn1)NC(=O)CNC(=O)[C@@H](NC(=O)[C@H](C)NC(=O)[C@H](Cc1c[nH]c2ccccc12)NC(=O)[C@H](CCC(N)=O)NC(=O)[C@@H]1CCC(=O)N1)C(C)C (single isomer, unassigned) [[Phe^8 .psi.[CH2 S(O)]Leu^9 ]litorin II] [pGlu--Gln--Trp--Ala--Val--Gly--His--Phe.psi.[CH2 S(O)]Leu--NH2] | 83% |  |  |
| CC(C)C[C@@H](C(N)=O)[S+]([O-])C[C@H](Cc1ccccc1)NC(=O)[C@H](Cc1c[nH]cn1)NC(=O)CNC(=O)[C@@H](NC(=O)[C@H](C)NC(=O)[C@H](Cc1c[nH]c2ccccc12)NC(=O)[C@H](CCC(N)=O)NC(=O)[C@@H]1CCC(=O)N1)C(C)C (single isomer, unassigned) [[Phe^8 .psi.[CH2 S(O)]Leu^9 ]litorin I] [pGlu--Gln--Trp--Ala--Val--Gly--His--Phe.psi.[CH2 S(O)]Leu--NH2] | 53% |  |  |
| CC(C)C[C@@H](C(N)=O)[S+]([O-])C[C@H](Cc1ccccc1)NC(=O)[C@H](Cc1c[nH]cn1)NC(=O)CNC(=O)[C@@H](NC(=O)[C@H](C)NC(=O)[C@H](Cc1c[nH]c2ccccc12)NC(=O)[C@H](CCC(N)=O)NC(=O)[C@@H]1CCC(=O)N1)C(C)C (single isomer, unassigned) [[Phe^8 .psi.[CH2 S(O)]Leu^9]litorin I, pGlu--Gln--Trp--Ala--Val--Gly--His--Phe.psi.[CH2 S(O)]Leu--NH2] |  | 1.8 nM |  |
| CC(C)C[C@@H](C(N)=O)[S+]([O-])C[C@H](Cc1ccccc1)NC(=O)[C@H](Cc1c[nH]cn1)NC(=O)CNC(=O)[C@@H](NC(=O)[C@H](C)NC(=O)[C@H](Cc1c[nH]c2ccccc12)NC(=O)[C@H](CCC(N)=O)NC(=O)[C@@H]1CCC(=O)N1)C(C)C (single isomer, unassigned) [[Phe^8 .psi.[CH2 S(O)]Leu^9]litorin II, pGlu--Gln--Trp--Ala--Val--Gly--His--Phe.psi.[CH2 S(O)]Leu--NH2] |  | 1 nM |  |
| CC(=O)N[C@@H](CCC(N)=O)C(=O)N[C@@H](Cc1c[nH]c2ccccc12)C(=O)N[C@@H](C)C(=O)N[C@H](C(=O)N[C@H](C)C(=O)N[C@@H](Cc1c[nH]cn1)C(=O)N[C@@H](CC(C)C)C(N)=O)C(C)C [Acetyl[D-Ala^11]bombesin(7-13)amide, Nα-acetyl-Gln--Trp--Ala--Val-D-Ala--His--Leu--NH2] (Ac-QWAV[dA]HL-NH2) | 24% |  | PI Turnover Agonist (Bombesin Receptor): - |
| CCCCCCCCCCCC(=O)N[C@@H](CCC(N)=O)C(=O)N[C@@H](Cc1c[nH]c2ccccc12)C(=O)N[C@@H](C)C(=O)N[C@H](C(=O)N[C@H](C)C(=O)N[C@@H](Cc1c[nH]cn1)C(=O)N[C@@H](CC(C)C)C(N)=O)C(C)C [Lauryl[D-Ala^11]bombesin(7-13)amide, Nα-lauryl-Gln--Trp--Ala--Val-D-Ala--His--Leu--NH2] (Lauroyl-QWAV[dA]HL-NH2) | 53% |  |  |
| CSCC[C@H](NC(=O)[C@H](Cc1ccccc1)NC(=O)[C@H](Cc1c[nH]cn1)NC(=O)CNC(=O)[C@@H](NC(=O)[C@H](C)NC(=O)[C@H](Cc1c[nH]c2ccccc12)NC(=O)[C@H](CCC(N)=O)NC(=O)[C@@H]1CCC(=O)N1)C(C)C)C(N)=O [Litorin, pGlu--Gin--Trp--Ala--Val--Gly--His--Phe--Met--NH2, reference compound] |  | 0.075 nM | PI Turnover Agonist (Bombesin Receptor): +; Kd (bombesin/GRP receptor; triplicate, in the presence of 40 pM 125I-GRP, LIGAND fit, read-out: Kd, single class of sites (FIG. 2)): 0.1 nM |
| CCCCCCCC(=O)N[C@@H](CCC(N)=O)C(=O)N[C@@H](Cc1c[nH]c2ccccc12)C(=O)N[C@@H](C)C(=O)N[C@H](C(=O)N[C@H](C)C(=O)N[C@@H](Cc1c[nH]cn1)C(=O)N[C@@H](CC(C)C)C(N)=O)C(C)C [Octanoyl[D-Ala^11]bombesin(7-13)amide, Nα-octyl-Gln--Trp--Ala--Val-D-Ala--His--Leu--NH2] (Octanoyl-QWAV[dA]HL-NH2; N-terminus and C-terminus assumed) |  |  | PI Turnover Agonist (Bombesin Receptor): - |
| CCCCCCCCCCCCCCCC(=O)N[C@@H](CCC(N)=O)C(=O)N[C@@H](Cc1c[nH]c2ccccc12)C(=O)N[C@@H](C)C(=O)N[C@H](C(=O)N[C@H](C)C(=O)N[C@@H](Cc1c[nH]cn1)C(=O)N[C@@H](CC(C)C)C(N)=O)C(C)C [Palmityl[D-Ala^11]bombesin(7-13)amide, Nα-palmityl-Gln--Trp--Ala--Val-D-Ala--His--Leu--NH2] (Palmitoyl-QWAV[dA]HL-NH2) | 45% |  |  |
| CC(C)C[C@@H](CN[C@@H](CC(C)C)C(N)=O)NC(=O)[C@H](Cc1c[nH]cn1)NC(=O)CNC(=O)[C@@H](NC(=O)[C@H](C)NC(=O)[C@H](Cc1c[nH]c2ccccc12)NC(=O)[C@H](CCC(N)=O)NC(=O)[C@H](CC(N)=O)NC(=O)CNC(=O)[C@H](CC(C)C)NC(=O)[C@H](CCCNC(=N)N)NC(=O)[C@H](CCC(N)=O)NC(=O)[C@@H]1CCC(=O)N1)C(C)C [[Leu^13 .psi.{CH2 NH]Leu^14]bombesin, pGlu--Gln--Arg--Leu--Gly--Asn--Gln--Trp--Ala--Val--Gly--His--Leu.psi.[CH2 N]Leu--NH2, reference compound] ([pGlu]QRLGNQWAVGH-X2) | 30% |  |  |
| CC(C)C[C@@H](CN[C@@H](CC(C)C)C(N)=O)NC(=O)[C@H](Cc1cnc[nH]1)NC(=O)CNC(=O)[C@@H](NC(=O)[C@H](C)NC(=O)[C@H](Cc1c[nH]c2ccccc12)NC(=O)[C@H](CCC(N)=O)NC(=O)[C@H](CC(N)=O)NC(=O)CNC(=O)[C@H](CC(C)C)NC(=O)[C@H](CCCN=C(N)N)NC(=O)[C@H](CCC(N)=O)NC(=O)[C@@H]1CCC(=O)N1)C(C)C [[Leu^13 .psi.{CH2 NH]Leu^14]bombesin, pGlu--Gln--Arg--Leu--Gly--Asn--Gln--Trp--Ala--Val--Gly--His--Leu.psi.[CH2 N]Leu--NH2, reference compound] ([pGlu]QRLGNQWAVGH-X2) |  | 8 nM |  |
| CC(C)C[C@H](SC[C@H](Cc1ccccc1)NC(=O)[C@H](Cc1c[nH]cn1)NC(=O)CNC(=O)[C@@H](NC(=O)[C@H](C)NC(=O)[C@H](Cc1c[nH]c2ccccc12)NC(=O)[C@H](CCC(N)=O)NC(=O)[C@@H]1CCC(=O)N1)C(C)C)C(N)=O [[Phe^8 .psi.[CH2 S]Leu^9]litorin, pGlu--Gln--Trp--Ala--Val--Gly--His--Phe.psi.[CH2 S]Leu--NH2] | 42% |  |  |

From US5428019A, “Bombesin analogs” (Merrell Dow Pharmaceuticals Inc., priority 1994, dated 1995)
